Source: ChEMBL document CHEMBL3734709, “Design, synthesis and evaluation of diarylpiperazine derivatives as potent anti-tubercular agents” (Eur J Med Chem, 2015)
Converted amounts (≈) assume the structure as drawn.

Columns and labels:
[1] = Selectivity index, ratio of CC50 for african green monkey Vero cells to MIC for Mycobacterium tuberculosis H37Rv; assay type: toxicity, cell-based; conditions: read-out: Selectivity Index
[2] = system: Mycobacterium tuberculosis; test: Antitubercular activity against Mycobacterium tuberculosis H37Rv measured on day 4 by microplate Alamar blue assay; assay type: functional; conditions: 96 h
[3] = Cytotoxicity against african green monkey Vero cells after 72 hrs by MTT assay; assay type: cell-based; conditions: chlorocebus sabaeus

For `CO[C@H]1/C=C/O[C@@]2(C)Oc3c(C)c(O)c4c(O)c(c(/C=N/N5CCN(C)CC5)c(O)c4c3C2=O)NC(=O)/C(C)=C\C=C\[C@H](C)[C@H](O)[C@@H](C)[C@@H](O)[C@@H](C)[C@H](OC(C)=O)[C@@H]1C` [RIFAMPIN], the selectivity ratio [1] was > 1360, the MIC90 [2] was 0.13 µM (≈ 0.107 µg/mL) and the CC50 at 72 h [3] was > 150 µg/mL.

For `Cn1c2ccccc2c2cc(C(=O)N3CCN(c4ccccn4)CC3)nc(-c3ccccc3)c21`, the selectivity ratio [1] was > 11.4, the MIC90 [2] was 9.8 µM (≈ 4.39 µg/mL) and the CC50 at 72 h [3] was > 50 µg/mL.

For `Cc1ccccc1N1CCN(C(=O)c2cc3c4ccccc4n(C)c3c(-c3ccccc3)n2)CC1`, the selectivity ratio [1] was > 20.8, the MIC90 [2] was 5.2 µM (≈ 2.4 µg/mL) and the CC50 at 72 h [3] was > 50 µg/mL.

For `Cn1c2ccccc2c2cc(C(=O)N3CCN(c4ccc(Cl)cc4)CC3)nc(-c3ccccc3)c21`, the selectivity ratio [1] was > 1.3, the MIC90 [2] was 83.3 µM (≈ 40.1 µg/mL) and the CC50 at 72 h [3] was > 50 µg/mL.

For `Cn1c2ccccc2c2cc(C(=O)N3CCN(c4cccc(Cl)c4Cl)CC3)nc(-c3ccccc3)c21`, the selectivity ratio [1] was > 33.3, the MIC90 [2] was 2.9 µM (≈ 1.49 µg/mL) and the CC50 at 72 h [3] was > 50 µg/mL.

In the case of `Cn1c2ccccc2c2cc(C(=O)N3CCN(c4cccc(Cl)c4)CC3)nc(-c3ccccc3)c21`, the selectivity ratio [1] is reported as > 1.3, the MIC90 [2] is reported as 79.6 µM (≈ 38.3 µg/mL) and the CC50 at 72 h [3] is reported as > 50 µg/mL.

With `COc1ccccc1N1CCN(C(=O)c2cc3c4ccccc4n(C)c3c(-c3ccccc3)n2)CC1` the selectivity ratio [1] was > 25, the MIC90 [2] was 3.5 µM (≈ 1.67 µg/mL) and the CC50 at 72 h [3] was > 50 µg/mL.

In the case of `COc1ccc(N2CCN(C(=O)c3cc4c5ccccc5n(C)c4c(-c4ccccc4)n3)CC2)cc1`, the selectivity ratio [1] is reported as > 8.6, the MIC90 [2] is reported as 10.1 µM (≈ 4.81 µg/mL) and the CC50 at 72 h [3] is reported as > 50 µg/mL.

In the case of `Cn1c2ccccc2c2cc(C(=O)N3CCN(c4ccccc4)CC3)nc(-c3ccccc3)c21`, the selectivity ratio [1] is reported as > 4.1, the MIC90 [2] is reported as 27.4 µM (≈ 12.2 µg/mL) and the CC50 at 72 h [3] is reported as > 50 µg/mL.

With `Cn1c2ccccc2c2cc(C(=O)N3CCN(c4ccccc4F)CC3)nc(-c3ccccc3)c21` the selectivity ratio [1] was > 18.5, the MIC90 [2] was 5.8 µM (≈ 2.69 µg/mL) and the CC50 at 72 h [3] was > 50 µg/mL.

With `Cn1c2ccccc2c2cc(C(=O)N3CCN(c4ccc(F)cc4)CC3)nc(-c3ccccc3)c21` the selectivity ratio [1] was > 19.2, the MIC90 [2] was 5.6 µM (≈ 2.6 µg/mL) and the CC50 at 72 h [3] was > 50 µg/mL.

In the case of `Cn1c2ccccc2c2cc(C(=O)N3CCN(Cc4ccccc4)CC3)nc(-c3ccccc3)c21`, the selectivity ratio [1] is reported as > 12.2, the MIC90 [2] is reported as 8.9 µM (≈ 4.1 µg/mL) and the CC50 at 72 h [3] is reported as > 50 µg/mL.

For `Cc1ccc(N2CCN(C(=O)c3cc4c5ccccc5n(C)c4c(-c4ccccc4)n3)CC2)cc1`, the selectivity ratio [1] was > 11.6, the MIC90 [2] was 9.3 µM (≈ 4.28 µg/mL) and the CC50 at 72 h [3] was > 50 µg/mL.

With `Cn1c2ccccc2c2cc(C(=O)N3CCN(c4ccccc4Cl)CC3)nc(-c3ccccc3)c21` the selectivity ratio [1] was > 20.8, the MIC90 [2] was 5 µM (≈ 2.4 µg/mL) and the CC50 at 72 h [3] was > 50 µg/mL.

`Cn1c2ccccc2c2cc(C(=O)N3CCN(c4ccncc4)CC3)nc(-c3ccccc3)c21` gave a selectivity ratio [1] of 4.5, an MIC90 [2] of 9.8 µM (≈ 4.39 µg/mL) and a CC50 at 72 h [3] of 18 µg/mL (≈ 40.2 µM).
